Reference: patent US8394398B2 (Abbott Laboratories, priority 1997, dated 2013)

Tested on: human coronary artery smooth muscle cells (hCaSMC)
Assay: 3H-thymidine uptake proliferation assay, hCaSMC
Type: cell-based
Settings: Homo sapiens, 3 h; read-out: hCaSMC IC50 Mean ± SEM
Experimental: Experiments were performed to investigate interactions between zotarolimus and the corticosteroid dexamethasone. The effect of dexamethasone on the antiproliferative activity of zotarolimus in human coronary artery smooth muscle ([…]) and endothelial […] determined using an in vitro proliferation assay. The proliferation and migration of vascular smooth muscle cells into the vascular neointima is a characteristic pathologic response seen in restenotic lesions (A. Lafont and P. Libby, The smooth muscle cell: sinner or saint in restenosis and the acute coronary syndromes? […] As a result, in vitro assays which specifically measure the antiproliferative activity of candidate anti-restenotic compounds on human coronary artery smooth muscle and endothelial cells should predict potential anti-restenotic activity in vivo. The tritium incorporation assay is an accurate and sensitive method used in the art to determine cell number and proliferation. Compounds or combinations of compounds which attenuate growth factor-mediated human coronary artery smooth muscle cell […]) proliferation, as measured by the tritium incorporation assay in vitro, are candidate anti-restenotic agents. […] Cell proliferation was monitored by following incorporation of ^3H-thymidine into newly synthesized DNA of cells stimulated by serum and growth factors. Exponentially growing […] were seeded into 96-well flat bottom tissue culture plates at 5,000 cells/well (10,000 cells/well for […]). The cells were allowed to attach overnight. The growth medium was removed the following day and cells were washed twice with unsupplemented (basal) medium to remove traces of serum and growth factors. Basal medium (200 μl) was added to each well and the cells incubated in medium lacking growth factors and serum to starve and synchronize them in the G0 state. After starvation (48 hours for […] and 39 hours for […]) in medium lacking serum and growth factors, the cells were replenished with 200 μl supplemented medium in the absence or presence of drugs at the desired concentrations. […] After a 72-hour incubation period, 25 μl (1 μCi/well) of ^3H-thymidine (Amersham Biosciences) were added to each well. The cells were incubated at 37° C. for 16-18 hours to allow incorporation of ^3H-thymidine into newly synthesized DNA and the cells harvested onto 96-well plates containing bonded glass fiber filters using a cell harvester (Harvester 9600, TOMTEC). […] Controls included medium only, starved cells and cells in complete medium. Drug activity was established by determining the inhibition of ^3H-thymidine incorporation into newly synthesized DNA relative to cells grown in complete medium. […] The final IC50s are means of the 3-4 experiments. In these experiments, the x-axis represents the concentration of the drug being varied. For most of these curves that is zotarolimus alone and in combination with a fixed concentration of dexamethasone. Each graph contains a dexamethasone alone curve and a zotarolimus alone curve. The set of curves in each graph is generated by adding dexamethasone at a fixed concentration (1, 5, 10 or 25 nM) to various concentrations of zotarolimus (0, 0.04, 0.08, 0.8, 4, 8, 40 nM). Each curve represents the dose-response of zotarolimus (whose concentration is given on the x-axis) in the presence of the fixed concentration of dexamethasone given in the legend). […] The concentration eliciting a specific antiproliferative effect was determined using a 4-parameter equation (Equation 1). […]

In the case of `CO[C@H]1C[C@@H]2CC[C@@H](C)[C@@](O)(O2)C(=O)C(=O)N2CCCC[C@H]2C(=O)O[C@H]([C@H](C)C[C@@H]2CC[C@H](n3cnnn3)[C@H](OC)C2)CC(=O)[C@H](C)/C=C(\C)[C@@H](O)[C@@H](OC)C(=O)[C@H](C)C[C@H](C)/C=C/C=C/C=C/1C` [zotarolimus], the IC50 is reported as 6.2 ± 1.2 nM.
